The source of these data is ChEMBL document CHEMBL4732124 (Eur J Med Chem, 2021).

Bounds are passed on as bounds.

In experiment [1] the test system is Huh-7. Put plainly: Antiproliferative activity against human Huh-7 cells assessed as cell viability at 10 uM after 48 hrs by MTT assay relative to control. Format: functional. Conditions: read-out: Activity.
In experiment [2] the test system is Hep 3B2. Nature of the experiment: Antiproliferative activity against human Hep3B cells assessed as cell viability at 10 uM after 48 hrs by MTT assay relative to control. It counts as functional. Conditions: read-out: Activity. Background: Tetrazolium dyes change colour on reduction, which living cells bring about.
Experiment [3] relates to Hep 3B2. Put plainly: Antiproliferative activity against human Hep3B cells assessed as reduction in cell viability after 48 hrs by MTT assay. Format: functional, cell-based.
The subject of experiment [4] is WI-38. Put plainly: Cytotoxicity against human WI-38 cells assessed as cell viability after 48 hrs by MTT assay. It counts as cell-based. Conditions: WI-38, 48 h.
The subject of experiment [5] is Huh-7. Put plainly: Antiproliferative activity against human Huh-7 cells assessed as reduction in cell viability after 48 hrs by MTT assay. It counts as functional, cell-based. Conditions: Huh-7, 48 h.
Experiment [6] has as its system HepG2. Put plainly: Antiproliferative activity against human HepG2 cells assessed as cell viability at 10 uM after 48 hrs by MTT assay relative to control. Format: functional. Conditions: read-out: Activity.
Experiment [7] relates to HepG2. Nature of the experiment: Antiproliferative activity against human HepG2 cells assessed as reduction in cell viability after 48 hrs by MTT assay. Format: functional, cell-based. The settings on record: HepG2, 48 h.
The target in experiment [8] is Mast/stem cell growth factor receptor Kit (Homo sapiens, UniProt P10721). Nature of the experiment: Inhibition of CKIT (unknown origin) in presence of [gamma33]-ATP at 10 uM by liquid scintillation counting analysis relative to control.
Experiment [9] has as its target T1, Serine/threonine-protein kinase A-Raf (Homo sapiens) (UniProt P10398).
T1 sequence (whole entry): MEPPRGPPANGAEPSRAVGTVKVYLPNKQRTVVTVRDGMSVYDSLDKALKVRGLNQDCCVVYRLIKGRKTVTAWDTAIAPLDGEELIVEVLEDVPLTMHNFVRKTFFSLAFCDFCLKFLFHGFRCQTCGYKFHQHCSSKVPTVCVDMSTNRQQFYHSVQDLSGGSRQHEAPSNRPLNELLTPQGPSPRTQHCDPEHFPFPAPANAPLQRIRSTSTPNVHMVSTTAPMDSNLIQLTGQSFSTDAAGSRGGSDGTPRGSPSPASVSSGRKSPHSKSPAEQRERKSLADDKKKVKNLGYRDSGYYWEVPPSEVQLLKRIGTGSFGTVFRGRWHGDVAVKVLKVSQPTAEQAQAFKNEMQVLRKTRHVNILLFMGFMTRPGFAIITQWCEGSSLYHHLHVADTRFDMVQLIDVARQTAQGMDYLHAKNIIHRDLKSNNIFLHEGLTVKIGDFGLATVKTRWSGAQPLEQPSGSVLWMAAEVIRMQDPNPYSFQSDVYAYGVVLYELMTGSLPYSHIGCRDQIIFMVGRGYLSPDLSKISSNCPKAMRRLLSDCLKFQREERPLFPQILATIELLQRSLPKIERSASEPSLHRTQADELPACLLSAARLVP
Put plainly: Inhibition of A-Raf (unknown origin) in presence of [gamma33]-ATP at 10 uM by liquid scintillation counting analysis relative to control.

The target in experiment [10] is Dual specificity mitogen-activated protein kinase kinase 1 (Homo sapiens) (UniProt Q02750). Nature of the experiment: Inhibition of MEK-1 (unknown origin) in presence of [gamma33]-ATP at 10 uM by liquid scintillation counting analysis relative to control.
Experiment [11] concerns the target Platelet-derived growth factor receptor beta (Homo sapiens) (UniProt P09619). Nature of the experiment: Inhibition of PDGFRbeta (unknown origin) in presence of [gamma33]-ATP at 10 uM by liquid scintillation counting analysis relative to control.
Experiment [12] addresses Platelet-derived growth factor receptor alpha (Homo sapiens, UniProt P16234). Nature of the experiment: Inhibition of PDGFRalpha (unknown origin) in presence of [gamma33]-ATP at 10 uM by liquid scintillation counting analysis relative to control.

Chain of Mast/stem cell growth factor receptor Kit (P10721 whole entry): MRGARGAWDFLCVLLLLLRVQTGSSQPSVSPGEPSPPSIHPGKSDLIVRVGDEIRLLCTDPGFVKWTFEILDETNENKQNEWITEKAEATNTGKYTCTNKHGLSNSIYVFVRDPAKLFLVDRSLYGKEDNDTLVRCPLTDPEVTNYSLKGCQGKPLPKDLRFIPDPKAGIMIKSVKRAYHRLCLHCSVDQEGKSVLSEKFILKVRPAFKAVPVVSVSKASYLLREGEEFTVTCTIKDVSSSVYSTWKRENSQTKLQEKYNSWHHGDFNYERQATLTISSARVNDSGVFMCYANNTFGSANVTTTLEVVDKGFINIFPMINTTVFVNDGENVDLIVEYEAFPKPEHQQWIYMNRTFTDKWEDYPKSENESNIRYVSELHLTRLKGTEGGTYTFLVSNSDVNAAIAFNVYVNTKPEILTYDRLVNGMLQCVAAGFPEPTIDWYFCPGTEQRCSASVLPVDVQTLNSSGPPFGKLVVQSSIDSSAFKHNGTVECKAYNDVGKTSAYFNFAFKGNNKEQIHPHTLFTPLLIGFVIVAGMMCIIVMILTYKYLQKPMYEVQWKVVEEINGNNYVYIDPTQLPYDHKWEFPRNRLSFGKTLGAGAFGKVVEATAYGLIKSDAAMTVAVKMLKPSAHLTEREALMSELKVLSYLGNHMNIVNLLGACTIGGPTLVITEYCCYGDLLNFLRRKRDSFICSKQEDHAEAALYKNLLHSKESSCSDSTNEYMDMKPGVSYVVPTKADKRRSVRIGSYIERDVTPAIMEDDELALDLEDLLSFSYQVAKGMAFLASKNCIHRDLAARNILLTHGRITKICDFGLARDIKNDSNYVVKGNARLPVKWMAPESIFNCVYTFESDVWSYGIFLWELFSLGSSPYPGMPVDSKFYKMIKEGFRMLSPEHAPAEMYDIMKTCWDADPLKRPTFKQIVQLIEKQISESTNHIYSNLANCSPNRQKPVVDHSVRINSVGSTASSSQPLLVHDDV
Chain of Dual specificity mitogen-activated protein kinase kinase 1 (Homo sapiens) (Q02750 whole entry): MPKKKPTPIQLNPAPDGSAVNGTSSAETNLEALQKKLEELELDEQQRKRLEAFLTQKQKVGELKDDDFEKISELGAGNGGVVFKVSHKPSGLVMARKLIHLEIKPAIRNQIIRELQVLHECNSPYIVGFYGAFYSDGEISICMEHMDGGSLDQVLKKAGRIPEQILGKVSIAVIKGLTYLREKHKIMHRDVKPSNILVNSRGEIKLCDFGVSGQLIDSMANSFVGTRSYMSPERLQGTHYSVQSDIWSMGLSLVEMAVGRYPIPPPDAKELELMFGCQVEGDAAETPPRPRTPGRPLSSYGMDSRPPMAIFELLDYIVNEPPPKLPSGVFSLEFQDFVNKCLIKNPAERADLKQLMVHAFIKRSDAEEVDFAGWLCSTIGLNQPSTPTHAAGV
Chain of Platelet-derived growth factor receptor beta (Homo sapiens) (P09619 whole entry): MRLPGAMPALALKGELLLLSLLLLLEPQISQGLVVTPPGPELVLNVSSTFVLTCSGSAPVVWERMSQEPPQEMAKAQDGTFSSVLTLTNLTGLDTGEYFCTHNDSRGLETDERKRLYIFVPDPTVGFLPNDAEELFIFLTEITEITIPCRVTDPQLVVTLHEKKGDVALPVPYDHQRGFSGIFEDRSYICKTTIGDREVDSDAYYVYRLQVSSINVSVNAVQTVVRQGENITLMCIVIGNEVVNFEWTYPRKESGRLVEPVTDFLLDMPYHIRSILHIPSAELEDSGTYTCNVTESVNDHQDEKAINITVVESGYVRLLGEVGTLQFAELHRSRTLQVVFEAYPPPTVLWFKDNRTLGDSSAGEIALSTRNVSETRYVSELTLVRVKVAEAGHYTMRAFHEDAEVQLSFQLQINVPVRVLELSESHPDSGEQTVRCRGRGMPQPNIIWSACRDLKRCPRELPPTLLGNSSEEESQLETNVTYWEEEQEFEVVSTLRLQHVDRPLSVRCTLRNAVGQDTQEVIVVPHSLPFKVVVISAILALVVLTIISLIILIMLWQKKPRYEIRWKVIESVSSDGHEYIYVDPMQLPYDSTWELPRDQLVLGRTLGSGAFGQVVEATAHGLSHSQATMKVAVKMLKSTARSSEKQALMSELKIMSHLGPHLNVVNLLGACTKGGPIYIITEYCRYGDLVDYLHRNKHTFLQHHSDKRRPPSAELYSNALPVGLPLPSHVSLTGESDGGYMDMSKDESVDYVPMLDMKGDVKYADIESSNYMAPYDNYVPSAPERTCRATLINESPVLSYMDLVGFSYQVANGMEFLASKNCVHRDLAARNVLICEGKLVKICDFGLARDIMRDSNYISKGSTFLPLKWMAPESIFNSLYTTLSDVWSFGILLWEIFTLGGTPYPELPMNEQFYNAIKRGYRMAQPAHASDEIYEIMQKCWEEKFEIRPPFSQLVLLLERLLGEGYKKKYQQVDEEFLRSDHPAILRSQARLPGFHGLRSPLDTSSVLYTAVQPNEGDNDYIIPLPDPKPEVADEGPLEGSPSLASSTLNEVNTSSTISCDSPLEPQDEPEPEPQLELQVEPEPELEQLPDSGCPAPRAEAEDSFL
Chain of Platelet-derived growth factor receptor alpha (P16234 whole entry): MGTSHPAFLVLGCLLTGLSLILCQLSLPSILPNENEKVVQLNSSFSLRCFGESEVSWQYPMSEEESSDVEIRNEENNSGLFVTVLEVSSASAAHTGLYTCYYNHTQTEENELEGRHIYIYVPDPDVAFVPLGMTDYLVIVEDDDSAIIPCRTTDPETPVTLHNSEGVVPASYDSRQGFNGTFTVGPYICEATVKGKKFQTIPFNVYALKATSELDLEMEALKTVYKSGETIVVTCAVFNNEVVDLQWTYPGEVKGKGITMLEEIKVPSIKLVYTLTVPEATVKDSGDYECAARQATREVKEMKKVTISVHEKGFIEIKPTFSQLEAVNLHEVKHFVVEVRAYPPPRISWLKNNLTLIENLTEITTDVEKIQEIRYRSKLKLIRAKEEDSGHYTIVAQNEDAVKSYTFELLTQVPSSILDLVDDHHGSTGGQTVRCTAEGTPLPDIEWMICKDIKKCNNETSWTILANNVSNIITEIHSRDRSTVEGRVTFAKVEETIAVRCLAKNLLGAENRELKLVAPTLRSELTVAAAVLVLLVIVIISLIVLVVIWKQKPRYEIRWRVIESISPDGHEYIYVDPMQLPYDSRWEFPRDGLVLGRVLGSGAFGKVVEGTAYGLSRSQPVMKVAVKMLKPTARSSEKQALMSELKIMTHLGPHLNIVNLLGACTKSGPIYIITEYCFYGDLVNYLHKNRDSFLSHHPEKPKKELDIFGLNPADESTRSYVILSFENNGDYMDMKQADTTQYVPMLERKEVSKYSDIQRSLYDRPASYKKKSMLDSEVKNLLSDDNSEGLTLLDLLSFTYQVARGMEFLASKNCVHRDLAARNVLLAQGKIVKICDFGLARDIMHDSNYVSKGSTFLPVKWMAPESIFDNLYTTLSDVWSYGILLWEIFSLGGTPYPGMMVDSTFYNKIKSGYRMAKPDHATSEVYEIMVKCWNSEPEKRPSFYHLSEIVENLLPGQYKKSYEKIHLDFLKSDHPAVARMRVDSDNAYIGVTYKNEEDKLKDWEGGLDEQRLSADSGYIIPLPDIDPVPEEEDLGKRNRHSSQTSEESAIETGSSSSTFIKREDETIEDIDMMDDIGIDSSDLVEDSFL

By IC50 is commonly meant the concentration that gives 50% inhibition. For the molecule `CNC(=O)c1cc(-n2ccc3cc(NC(=O)Nc4cc(C(F)(F)F)cc(C(F)(F)F)c4)ccc32)ccn1`, the viability at 10 µM came out at 30% in [1], 73% in experiment [2] and 55% in [6]. Also, the IC50 was 29.8 µM in experiment [3], over 30 µM in [4] and 5.01 µM in [5].

For the molecule `CNC(=O)c1cc(-n2ccc3cc(NS(=O)(=O)c4ccccc4)ccc32)ccn1`, the viability at 10 µM in experiment [1] turned out to be 105%; in experiment [2], 93%; in experiment [6], 98%.

`CNC(=O)c1cc(-n2ccc3cc(NC(=O)Nc4ccc(F)c(C(F)(F)F)c4)ccc32)ccn1`: the viability at 10 µM was found to be 65% in experiment [1], 49% in experiment [2] and 67% in experiment [6].

For `CNC(=O)c1cc(-n2ccc3cc(NC(=O)c4ccccc4)ccc32)ccn1`, the values for the viability at 10 µM in experiment [1], in experiment [2] and in experiment [6] were 105%, 29% and 99%, respectively.

For `CNC(=O)c1cc(-n2ccc3cc(NC(=O)Nc4ccccc4)ccc32)ccn1`, the viability at 10 µM in experiment [1] amounted to 74%; in [2], 66%; in [6] it was 82%.

With `CNC(=O)c1cc(-n2ccc3cc(NC(=O)Nc4ccc(Cl)c(Cl)c4)ccc32)ccn1`, the viability at 10 µM in [1] stood at 43%; in [2] it was 46%; in experiment [6] it was 57%. Moreover, the IC50 in experiment [3] is 7.94 µM; in experiment [4], 23.1 µM; in [5], 7.96 µM.

`CNC(=O)c1cc(-n2ccc3cc(NC(=O)c4ccc(Cl)c(Cl)c4)ccc32)ccn1`: the viability at 10 µM came out at 61% in experiment [1], 79% in [2] and 80% in [6].

As to `CNC(=O)c1cc(-n2ccc3cc(NC(=S)Nc4ccc(Cl)c(C(F)(F)F)c4)ccc32)ccn1`, the viability at 10 µM in [1] was found to be 76%; in experiment [2], 40%; in experiment [6], 60%. For the same molecule, the values for the IC50 in [3], in [4] and in experiment [5] were 13.9 µM, 28.8 µM and 21.5 µM, respectively.

Turning to `CNC(=O)c1cc(-n2ccc3cc(NC(=O)c4cccc(C(F)(F)F)c4)ccc32)ccn1`, the viability at 10 µM is 77% in [1], 72% in experiment [2] and 34% in experiment [6]. Also, the IC50 in experiment [4] was found to be 6.5 µM; in experiment [7] it was 2.67 µM.

For `CNC(=O)c1cc(-n2ccc3cc(NS(=O)(=O)c4cccc(C(F)(F)F)c4)ccc32)ccn1`, the viability at 10 µM in experiment [1] came to 94%; in [2] it was 84%; in experiment [6] it was 88%.

Usually inhibition stands for the drop in the measured response relative to a control, in per cent. With `CNC(=O)c1cc(Oc2ccc(NC(=O)Nc3ccc(Cl)c(C(F)(F)F)c3)cc2)ccn1` [SORAFENIB], the viability at 10 µM was found to be 21% in experiment [1], 33% in experiment [2] and 35% in [6]. The inhibition in experiment [8] came to 65.8%; in [9], 99%; in experiment [10], 37.7%; in experiment [11], 99.1%; in experiment [12], 99.4%. For the same molecule, the IC50 is 8.62 µM in experiment [3], over 30 µM in [4], 7.55 µM in [5] and 7.22 µM in experiment [7].

As for `CNC(=O)c1cc(-n2ccc3cc(NS(=O)(=O)c4ccc(Cl)c(C(F)(F)F)c4)ccc32)ccn1`, the figures for the viability at 10 µM in experiment [1], in experiment [2] and in experiment [6] were 101%, 92% and 97%, respectively.

In the case of `CNC(=O)c1cc(-n2ccc3cc(NC(=O)Nc4ccc(Cl)c(C(F)(F)F)c4)ccc32)ccn1`, the viability at 10 µM in [1] came to 40%; in experiment [2] it was 53%; in experiment [6], 55%. Further, the IC50 was 12.3 µM in experiment [3], 26.7 µM in experiment [4] and 15.4 µM in experiment [5].

Turning to `CNC(=O)c1cc(-n2ccc3cc(NS(=O)(=O)c4cc(C(F)(F)F)cc(C(F)(F)F)c4)ccc32)ccn1`, the figures for the viability at 10 µM in experiment [1], in experiment [2] and in experiment [6] were 98%, 92% and 96%, respectively.

For the molecule `CNC(=O)c1cc(-n2ccc3cc(NC(=S)Nc4cccc(C(F)(F)F)c4)ccc32)ccn1`, the viability at 10 µM in experiment [1] was 109%; in [2], 99%; in experiment [6], 81%.

Turning to `CNC(=O)c1cc(-n2ccc3cc(NC(=O)Nc4ccc(N5CCOCC5)c(C(F)(F)F)c4)ccc32)ccn1`, the viability at 10 µM in experiment [1] was 28%; in experiment [2], 27%; in [6] it was 47%. Besides, the half-maximal inhibitory concentration (IC50) in [4] is over 30 µM; in experiment [5], 5.6 µM; in [7] it was 9.35 µM.

Turning to `CNC(=O)c1cc(-n2ccc3cc(NC(=O)c4ccc(Cl)c(C(F)(F)F)c4)ccc32)ccn1`, the viability at 10 µM in experiment [1] turned out to be 42%; in experiment [2], 54%; in [6] it was 32%.

Take `CNC(=O)c1cc(-n2ccc3cc(NC(=O)Nc4cccc(C(F)(F)F)c4)ccc32)ccn1`: the results for the viability at 10 µM in experiment [1], in experiment [2] and in [6] were 68%, 58% and 76%, respectively.

Regarding `CNC(=O)c1cc(-n2ccc3cc(NC(=S)Nc4ccc(Cl)c(Cl)c4)ccc32)ccn1`, the viability at 10 µM came to 89% in [1], 86% in experiment [2] and 79% in experiment [6].

In the case of `CNC(=O)c1cc(-n2ccc3cc(NS(=O)(=O)c4ccc(Cl)c(Cl)c4)ccc32)ccn1`, the viability at 10 µM in experiment [1] was determined as 94%; in [2], 92%; in experiment [6], 97%.

Consider `CNC(=O)c1cc(-n2ccc3cc(NC(=S)Nc4ccccc4)ccc32)ccn1`, for which the viability at 10 µM in experiment [1] came out at 121%; in experiment [2] it was 64%; in experiment [6] it was 100%.

Regarding `CNC(=O)c1cc(-n2ccc3cc(NC(=O)c4cc(C(F)(F)F)cc(C(F)(F)F)c4)ccc32)ccn1`, the figures for the viability at 10 µM in experiment [1], in [2] and in experiment [6] were 77%, 111% and 90%, respectively.

For the molecule `CNC(=O)c1cc(-n2ccc3cc(NC(=O)c4ccc(N5CCOCC5)c(C(F)(F)F)c4)ccc32)ccn1`, the figures for the viability at 10 µM in experiment [1], in [2] and in [6] were 46%, 53% and 72%, respectively. Further, the IC50 came to 8.48 µM in [4] and 237 µM in experiment [7].

Regarding `CNC(=O)c1cc(-n2ccc3cc(NC(=S)Nc4cc(C(F)(F)F)cc(C(F)(F)F)c4)ccc32)ccn1`, the viability at 10 µM was 40% in experiment [1], 55% in [2] and 53% in [6].

Take `CNC(=O)c1cc(-n2ccc3cc(NC(=O)c4ccc(F)c(C(F)(F)F)c4)ccc32)ccn1`: the results for the viability at 10 µM in [1], in experiment [2] and in [6] were 40%, 59% and 67%, respectively.
